Laboratory results reported in patent US10143747B2, “Breast cancer therapeutics” (IMBA—INSTITUT FÜR MOLEKULARE BIOTECHNOLOGIE GMBH, priority 2010, dated 2018).

B1: RANKL: recombinant RANKL protein, ligand of RANK, used as stimulus (1 μg/ml or 1 μg i.p.) (protein, UniProt O35235 139-316, looked up)
Tumor necrosis factor ligand …: FSGAPAMMEGSWLDVAQRGKPEAQPFAHLTINAASIPSGSHKVTLSSWYHDRGWAKISNMTLSNGKLRVNQDGFYYLYANICFRHHETSGSVPTDYLQLMVYVVKTSIKIPSSHNLMKGGSTKNWSGNSEFHFYSINVGGFFKLRAGEEISIQVSNPSLLDPDQDATYFGAFKVQDID

Legend:
Lin-CD24+CD49f^hi cells = assay: FACS quantification of stem cell-enriched Lin-CD24+CD49f hi mammary population (MaSC); type: in vivo, mouse; conditions: MPA for 3 days
Protocol: a,b, Induction of RANKL expression by the progesterone-derivative MPA. Nulliparous wild type females were s.c. implanted with slow-release MPA pellets or treated with surgery sham. a, RANKL mRNA was determined in purified mammary epithelial cells by qRT-PCR three days after implantation. Data are shown as fold change compared to sham treatment (+/−sem) (n=3). b, In situ […] immunostaining of progesterone receptor (PR, red) and RANKL (green) in mammary epithelial cells after 3d MPA treatment. c, Induction of soluble RANKL protein assayed on isolated mammary gland epithelial cells from control, but not in prolactin receptor mutant (PRL-R KO) females on day 3 after s.c. MPA implantation. […] Proliferation was determined by in situ Ki67 immunostaining. e,f, Marked increase of the stem cell-enriched CD24^+CD49^high population (MaSC) in MPA-treated mammary glands in control but not in RANK^Δmam mammary glands. e, Representative FACS profiles showing CD24 and CD49 expression of lineage negative (CD31^− (endothelial cells) CD45^− (hematopoietic cells) […] (erythroid cells)) of mammary MaSCs from MPA- or sham-treated 8-week old virgin females. f, Quantification of MaSC-enriched CD24^+CD49^high population from mammary glands of MPA- or sham-treated virgin RANK^Δmam and littermate control females. […]

[1] = tested on: SKBR3 breast cancer cells; assay: Growth curve of SKBR3 cells, live cell counting; type: cell-based, human; conditions: RANKL 1 μg/ml, 3 days
Protocol: a, Western blotting for phosphorylated (P) p65 NFκB, total p65 NFκB, phosphorylated (P) IκBα, total IκBα, phosphorylated (P) ERK1/2, total ERK1/2, phosphorylated (P) p38-MAPK, and p38-MAPK in human SKBR3 breast cancer cells in response to RANKL stimulation (1 μg/ml). Data are representative of 3 experiments. b, Growth curve of SKBR3 breast cancer cells cultured in normal growth medium (control, DMEM supplemented with 10% FCS) or in the presence of RANKL (1 μg/ml). Cell numbers were determined by counting live cells (trypan blue-exclusion) over 3 days. c, Onset of palpable mammary tumors in NFATc1^Δmam (n=10) and age matched littermate control (n=16) females treated with MPA pellets and DMBA. Data are shown as percentage of tumor free mice after the last DMBA challenge. No significant difference was found. d, Quantification of NFATc1 mRNA expression in purified mammary epithelial cells (MECs) and MPA-driven mammary tumors from NFATc1^Δmam and littermate control females. mRNA was determined by qRT-PCR. Data are shown as fold change compared to control (+/−sem). n=5 Per group. *P<0.05 (Student's t-test).

Molecule	expansion of Lin-CD24+CD49f hi cells (Lin-CD24+CD49f^hi cells; RANKΔmam females)	expansion of Lin-CD24+CD49f hi cells (Lin-CD24+CD49f^hi cells; control females)	proliferation of SKBR3 cells [1]
CC(=O)O[C@]1(C(C)=O)CC[C@H]2[C@@H]3C[C@H](C)C4=CC(=O)CC[C@]4(C)[C@H]3CC[C@@]21C [MPA, medroxyprogesterone acetate]	did not occur	two-fold	–
B1	–	–	induced NFκB, p38-MAPKs and ERK activation and proliferation
